Test results taken from patent publication US7368470B2, “Substituted 3-pyrrolidine-indole derivatives” (Gruenenthal GmbH, priority 2003, dated 2008).

Legend:
[1] = molecular target: T1, serotonin reuptake (5HT uptake) (Rattus norvegicus, UniProt P31652); assay: Serotonin reuptake inhibition (5HT uptake inhibition) in rat brain synaptosomes; assay type: biochemical; details: synaptosomes from male rats' brains
T1 construct: These vesicular particles were isolated from the hypothalamus of male rats' brains for 5HT uptake; from tissue; host or cells: rat brain synaptosomes (P2 fraction; cerebral cortex / hypothalamus of male rats)
Source text: a) Tests on Serotonin Reuptake Inhibition
In order to be able to carry out these in vitro studies, synaptosomes from rats' cerebral cortices were freshly isolated. A “P2” fraction prepared according to Gray and Whittaker's instructions (E. G. Gray and V. P. Whittaker (1962) J. Anat. 76, 79-88) was used in each case. These vesicular particles were isolated from the hypothalamus of male rats' brains for 5HT uptake.
A detailed description of the method may be found in the literature (M. Ch. Frink, H.-H. Hennies, W. Englberger, M. Haurand and B. Wilffert (1996) Arzneim.-Forsch./Drug Res. 46 (III), 11, 1029-1036).

[2] = molecular target: T2, noradrenalin reuptake (NA uptake) (Rattus norvegicus, UniProt Q9WTR4); assay: Noradrenalin reuptake inhibition (NA uptake inhibition) in rat brain synaptosomes; assay type: biochemical; details: synaptosomes from male rats' brains
T2 construct: These vesicular particles were isolated from the hypothalamus of male rats' brains for NA uptake; from tissue; host or cells: rat brain synaptosomes (P2 fraction; cerebral cortex / hypothalamus of male rats)
Source text: b) Tests on Noradrenalin Reuptake Inhibition
In order to be able to carry out these in vitro studies, synaptosomes from rats' cerebral cortices were freshly isolated. A “P2” fraction, prepared according to Gray and Whittaker's instructions (E. G. Gray and V. P. Whittaker (1962) J. Anat. 76, 79-88) was used in each case. These vesicular particles were isolated from the hypothalamus of male rats' brains for NA uptake.
A detailed description of the method may be found in the literature (M. Ch. Frink, H.-H. Hennies, W. Englberger, M. Haurand and B. Wilffert (1996) Arzneim.-Frosch./Drug Res. 46 (III), 11, 1029-1036).

[3] = tested on: binding site 2 of the sodium channel (batrachotoxin (BTX) binding site); assay: Binding test on the sodium channel, binding site 2 (BTX bond), [3H]-batrachotoxinin A20 α-benzoate as ligand; parameters: species or system rat; details: 10 μM; rat cerebrocortex synaptosomes; ligand 10 nM; 25° C., 120 min

T2 sequence (Q9WTR4 1-597): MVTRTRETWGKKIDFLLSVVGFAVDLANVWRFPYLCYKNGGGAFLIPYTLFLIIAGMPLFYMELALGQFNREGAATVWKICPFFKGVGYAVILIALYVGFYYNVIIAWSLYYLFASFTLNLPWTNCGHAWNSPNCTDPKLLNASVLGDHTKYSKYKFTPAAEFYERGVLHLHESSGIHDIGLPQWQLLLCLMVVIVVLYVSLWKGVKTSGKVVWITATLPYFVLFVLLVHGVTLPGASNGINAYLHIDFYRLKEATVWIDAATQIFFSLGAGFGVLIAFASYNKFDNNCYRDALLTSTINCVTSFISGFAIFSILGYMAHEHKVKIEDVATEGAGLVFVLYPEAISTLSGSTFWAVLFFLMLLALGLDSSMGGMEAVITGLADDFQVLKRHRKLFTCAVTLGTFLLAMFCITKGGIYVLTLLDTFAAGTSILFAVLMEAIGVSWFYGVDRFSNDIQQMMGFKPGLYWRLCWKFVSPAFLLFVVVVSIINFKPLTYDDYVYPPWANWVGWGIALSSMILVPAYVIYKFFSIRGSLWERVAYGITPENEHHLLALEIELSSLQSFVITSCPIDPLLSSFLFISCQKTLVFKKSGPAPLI
T1 sequence (P31652 whole entry): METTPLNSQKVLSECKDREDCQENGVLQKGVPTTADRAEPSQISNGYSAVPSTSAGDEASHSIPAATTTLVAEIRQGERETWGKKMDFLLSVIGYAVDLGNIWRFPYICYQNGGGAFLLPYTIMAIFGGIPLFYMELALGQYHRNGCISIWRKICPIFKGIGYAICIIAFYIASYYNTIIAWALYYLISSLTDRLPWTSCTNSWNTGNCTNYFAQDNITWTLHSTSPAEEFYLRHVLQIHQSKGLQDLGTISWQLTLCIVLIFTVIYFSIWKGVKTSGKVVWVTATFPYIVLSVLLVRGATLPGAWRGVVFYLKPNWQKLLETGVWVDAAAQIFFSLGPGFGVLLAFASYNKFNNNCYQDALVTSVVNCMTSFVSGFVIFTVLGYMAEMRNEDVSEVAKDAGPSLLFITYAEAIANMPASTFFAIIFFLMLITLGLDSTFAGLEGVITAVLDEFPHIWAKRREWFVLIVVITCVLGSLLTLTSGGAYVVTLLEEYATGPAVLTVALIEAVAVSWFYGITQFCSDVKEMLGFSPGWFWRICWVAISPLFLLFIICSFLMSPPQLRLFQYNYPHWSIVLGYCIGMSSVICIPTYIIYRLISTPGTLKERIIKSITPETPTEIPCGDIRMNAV

SMILES | inhibition at 10 µM [1] [%] | inhibition at 10 µM [2] [%] | BTX bond, % inhibition [10 μM] [3] [%] | 5HT uptake, % inhibition [10 μM] [1] [%] | NA-uptake, inhibition [10 μM] [2]
Cn1cc(C2CCN(C(=O)c3cccnc3Cl)C2)c2ccccc21 (stereo not shown) [Compound 40, (2-chloro-pyridin-3-yl)-[3-(1-methyl-1H-indol-3-yl)-pyrrolidin-1-yl]-methanone] | 66 | 43 |  |  | 
O=C(c1ccc([N+](=O)[O-])cc1Cl)N1CCC(c2cn(Cc3cccc(F)c3)c3ccccc23)C1 (stereo not shown) [Compound 20, (2-chloro-4-nitro-phenyl)-{3-[1-(3-fluoro-benzyl)-1H-indol-3-yl]-pyrrolidin-1-yl}-methanone] | 89 | 43 | 91 |  | 
Cc1nc(C(F)(F)F)ccc1C(=O)N1CCC(c2cn(Cc3cccc(F)c3)c3ccccc23)C1 (stereo not shown) [Compound 42, {3-[1-(3-fluoro-benzyl)-1H-indol-3-yl]-pyrrolidin-1-yl}-(2-methyl-6-trifluoromethyl-pyridin-3-yl)-methanone] | 82 | 58 | 96 |  | 
O=C(c1ccc(SC(F)(F)F)cc1)N1CCC(c2c[nH]c3ccccc23)C1 (stereo not shown) [Compound 18, [3-(1H-indol-3-yl)-pyrrolidin-1-yl]-(4-trifluoromethylsulphanyl-phenyl)-methanone] | 49 | 49 |  |  | 
Cn1cc(C2CCN(C(=O)C=Cc3ccccc3)C2)c2ccccc21 (stereo not shown) [Compound 26, 1-[3-(1-methyl-1H-indol-3-yl)-pyrrolidin-1-yl]-3-phenyl-propenone] |  |  | 93 | 62 | 44
CCn1cc(C2CCN(C(=O)CCc3ccccc3)C2)c2ccccc21 (stereo not shown) [Compound 35, 1-[3-(1-ethyl-1H-indol-3-yl)-pyrrolidin-1-yl]-3-phenyl-propan-1-one] | 68 | 48 | 84 |  | 
CC#CCn1cc(C2CCN(CC(=O)Nc3cc(C)nn3C)C2)c2ccccc21 (stereo not shown) [Compound 49, 2-[3-(1-but-2-ynyl-1H-indol-3-yl)-pyrrolidin-1-yl]-N-(2,5-dimethyl-2H-pyrazol-3-yl)-acetamide] | 68 | 100 |  |  | 
O=C(c1ccc([N+](=O)[O-])cc1Cl)N1CCC(c2cn(Cc3ccc(C(F)(F)F)cc3)c3ccccc23)C1 (stereo not shown) [Compound 39] |  |  | 90 | 43 | 41
CSc1ncccc1C(=O)N1CCC(c2cn(C)c3ccccc23)C1 (stereo not shown) [Compound 37, [3-(1-methyl-1H-indol-3-yl)-pyrrolidin-1-yl]-(2-methylsulphanyl-pyridin-3-yl)-methanone] | 64 | 43 |  |  | 
O=[N+]([O-])c1ccc(S(=O)(=O)N2CCC(c3c[nH]c4ccccc34)C2)cc1 (stereo not shown) [Compound 24, 3-[1-(4-nitro-benzenesulphonyl)-pyrrolidin-3-yl]-1H-indole] | 53 | 59 |  |  | 
COCC(=O)N1CCC(c2cn(Cc3cccc(OC)c3)c3ccccc23)C1 (stereo not shown) [Compound 41, 2-methoxy-1-{3-[1-(3-methoxy-benzyl)-1H-indol-3-yl]-pyrrolidin-1-yl}-ethanone] | 44 | 43 |  |  | 
CCn1cc(C2CCN(C(=O)c3cccnc3)C2)c2ccccc21 (stereo not shown) [Compound 28] |  |  |  | 41 | 52
CCn1cc(C2CCN(C(=O)c3cc(C(F)(F)F)ccc3Cl)C2)c2ccccc21 (stereo not shown) [Compound 38, (2-chloro-5-trifluoromethyl-phenyl)-[3-(1-ethyl-1H-indol-3-yl)-pyrrolidin-1-yl]-methanone] |  | 49 | 89 |  | 
CCn1cc(C2CCN(CC(=O)Nc3scc(C)c3C#N)C2)c2ccccc21 (stereo not shown) [Compound 52, N-(3-cyano-4-methyl-thiophen-2-yl)-2-[3-(1-ethyl-1H-indol-3-yl)-pyrrolidin-1-yl]-acetamide] | 79 | 54 |  |  | 
CCn1cc(C2CCN(C(=O)c3ccc(C(F)(F)F)cc3)C2)c2ccccc21 (stereo not shown) [Compound 48, [3-(11-ethyl-1H-indol-3-yl)-pyrrolidin-1-yl]-(4-trifluoromethyl-phenyl)-methanone] |  |  |  | 43 | 40
Cc1ccc(F)c(C(=O)N2CCC(c3cn(Cc4ccc(C#N)cc4)c4ccccc34)C2)c1Cl (stereo not shown) [Compound 31, 4-{3-[1-(2-chloro-6-fluoro-3-methyl-benzoyl)-pyrrolidin-3-yl]-indol-1-ylmethyl}-benzonitrile] | 62 | 41 | 92 |  | 
Cn1cc(C2CCN(C(=O)c3ccc(-c4ccccc4)cc3)C2)c2ccccc21 (stereo not shown) [Compound 45, Biphenyl-4-yl-[3-(1-methyl-1H-indol-3-yl)-pyrrolidin-1-yl]-methanone] | 80 | 43 | 82 |  | 
C#CCn1cc(C2CCN(C(=O)c3cccnc3SC)C2)c2ccccc21 (stereo not shown) [Compound 44, (2-methylsulphanyl-pyridin-3-yl)-[3-(1-prop-2-inyl-1H-indol-3-yl)-pyrrolidin-1-yl]-methanone] |  |  |  | 60 | 49
N#Cc1ccc(Cn2cc(C3CCN(C(=O)c4ccc5nonc5c4)C3)c3ccccc32)cc1 (stereo not shown) [Compound 34, 4-{3-[1-(benzo[1,2,5]oxadiazole-5-carbonyl)-pyrrolidin-3-yl]-indol-1-ylmethyl}-benzonitrile] | 57 | 49 | 91 |  | 
COc1cccc(Cn2cc(C3CCN(C(=O)Cc4ccc(Cl)cc4)C3)c3ccccc32)c1 (stereo not shown) [Compound 46, 2-(4-chloro-phenyl)-1-{3-[1-(3-methoxy-benzyl)-1H-indol-3-yl]-pyrrolidin-1-yl}-ethanone] | 46 | 20 | 88 |  | 
